Test results taken from ChEMBL document CHEMBL1134349, “AMP deaminase inhibitors. 5. Design, synthesis, and SAR of a highly potent inhibitor series” (J Med Chem, 2001).

Experiments:
AMP deaminase 3 = target: T1, AMP deaminase 3 (Homo sapiens, UniProt Q01432); experiment: Inhibition of recombinant human E-type adenylate deaminase
T1 sequence (Q01432 whole entry): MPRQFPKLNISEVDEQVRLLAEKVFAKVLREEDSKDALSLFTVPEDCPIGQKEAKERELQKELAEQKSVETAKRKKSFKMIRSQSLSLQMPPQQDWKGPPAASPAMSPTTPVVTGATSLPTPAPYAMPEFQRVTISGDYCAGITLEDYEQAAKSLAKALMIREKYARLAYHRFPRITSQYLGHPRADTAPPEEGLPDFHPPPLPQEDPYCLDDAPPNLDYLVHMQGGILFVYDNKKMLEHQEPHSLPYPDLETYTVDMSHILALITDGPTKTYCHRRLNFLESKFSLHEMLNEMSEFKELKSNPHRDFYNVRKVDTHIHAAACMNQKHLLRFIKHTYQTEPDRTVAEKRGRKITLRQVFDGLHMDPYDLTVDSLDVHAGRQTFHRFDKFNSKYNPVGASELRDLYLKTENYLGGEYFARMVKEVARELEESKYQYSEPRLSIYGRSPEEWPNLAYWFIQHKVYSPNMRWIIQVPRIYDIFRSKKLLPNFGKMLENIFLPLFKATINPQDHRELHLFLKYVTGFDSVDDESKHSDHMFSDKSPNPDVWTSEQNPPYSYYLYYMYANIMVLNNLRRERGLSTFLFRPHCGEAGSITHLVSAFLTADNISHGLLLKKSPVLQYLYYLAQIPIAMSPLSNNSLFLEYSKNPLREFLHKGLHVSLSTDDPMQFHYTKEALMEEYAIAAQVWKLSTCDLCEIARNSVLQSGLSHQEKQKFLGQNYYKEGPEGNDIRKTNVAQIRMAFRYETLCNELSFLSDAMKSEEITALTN

Adenosine deaminase = target: T2, Adenosine deaminase (Bos taurus, UniProt P56658); experiment: Inhibition of Calf intestinal adenosine deaminase (ADA).
T2 sequence (P56658 whole entry): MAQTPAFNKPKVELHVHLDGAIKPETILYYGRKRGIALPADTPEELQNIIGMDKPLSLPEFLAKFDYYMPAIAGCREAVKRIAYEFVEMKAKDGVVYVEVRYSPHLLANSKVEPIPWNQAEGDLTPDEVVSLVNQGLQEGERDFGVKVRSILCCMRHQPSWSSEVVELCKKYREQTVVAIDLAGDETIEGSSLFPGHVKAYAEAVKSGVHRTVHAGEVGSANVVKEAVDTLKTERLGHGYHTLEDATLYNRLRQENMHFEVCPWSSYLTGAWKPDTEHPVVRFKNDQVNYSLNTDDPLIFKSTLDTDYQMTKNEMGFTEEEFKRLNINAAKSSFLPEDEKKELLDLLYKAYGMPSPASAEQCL

Row | SMILES | Ki (AMP deaminase 3) [µM] | Ki (Adenosine deaminase) [µM]
1 | CCOC(=O)c1c(Cl)c2c(c(CCn3cnc4c3NC=NCC4O)c1Cl)CCCC2 (configuration not stated) | 0.5 | > 7.5
2 | O=C(O)c1cc(CCn2cnc3c2N=CNCC3O)c2cc(Br)ccc2c1 (configuration not stated) | 0.96 | > 7.5
3 | CCOC(=O)c1cc(CCn2cnc3c2N=CNCC3O)c2cccc(C(F)(F)F)c2c1 (configuration not stated) | 35 | 2.7
4 | CCOC(=O)c1cc2c(c(CCn3cnc4c3N=CNCC4O)c1)CCCC2 (configuration not stated) | 1.3 | 3.4
5 | CCOC(=O)c1cc(CCn2cnc3c2NC=NCC3O)c2c(c1Br)CCCC2 (configuration not stated) | 1 | 0.53
6 | O=C(OCc1ccccc1)c1cc2c(c(CCn3cnc4c3N=CNCC4O)c1)CCCC2 (configuration not stated) | 5 | 0.72
7 | CCOC(=O)c1cc(CCn2cnc3c2NC=NCC3O)c2c(c1OC)CCCC2 (configuration not stated) | 2.3 | 3.7
8 | COC(=O)c1cc(CCn2cnc3c2NC=NCC3O)c2ccccc2c1 (configuration not stated) | 1.8 | > 7.5
9 | CCOC(=O)c1cc2c(c(CCn3cnc4c3N=CNCC4O)c1OC)CCCC2 (configuration not stated) | 2.4 | > 7.5
10 | CCOC(=O)c1cc(CCn2cnc3c2NC=NCC3O)c2c(c1OC(C)C)CCCC2 (configuration not stated) | 3.8 | > 7.5
11 | CCOC(=O)c1cc(CCn2cnc3c2N=CNCC3O)c2cc(Br)ccc2c1 (configuration not stated) | 14 | 4.4
12 | O=C(OCc1ccccc1)c1c(Cl)c2c(c(CCn3cnc4c3NC=NCC4O)c1Cl)CCCC2 (configuration not stated) | 0.3 | > 7.5
13 | O=C(O)c1cccc(CCn2cnc3c2N=CNCC3O)c1 (configuration not stated) | 0.5 | 
14 | O=C(O)C(CCCCn1cnc2c1NC=NCC2O)Cc1ccccc1 (configuration not stated) | 0.41 | 
15 | OC[C@H]1O[C@@H](n2cnc3c2N=CNC[C@H]3O)[C@H](O)[C@@H]1O [COFORMYCIN] | 3 | 

More lines, in order of falling Ki (AMP deaminase 3), values ahead:

Row | Ki (AMP deaminase 3) [µM] | Ki (Adenosine deaminase) [µM] | SMILES
16 | 0.3 | > 7.5 | CCOC(=O)c1cc(CCn2cnc3c2NC=NCC3O)c2c(c1OCc1ccccc1)CCCC2 (configuration not stated)
17 | 0.22 | > 7.5 | O=C(O)c1cc(CCn2cnc3c2N=CNCC3O)c2cccc(C(F)(F)F)c2c1 (configuration not stated)
18 | 0.09 | > 7.5 | CC(C)Oc1c(C(=O)O)cc(CCn2cnc3c2N=CNCC3O)c2c1CCCC2 (configuration not stated)
19 | 0.05 | > 7.5 | O=C(O)c1c(Cl)c2c(c(CCn3cnc4c3N=CNCC4O)c1Cl)CCCC2 (configuration not stated)
20 | 0.04 | > 7.5 | COc1c(C(=O)O)cc2c(c1CCn1cnc3c1NC=NCC3O)CCCC2 (configuration not stated)
21 | 0.03 | > 7.5 | COc1c(C(=O)O)cc(CCn2cnc3c2NC=NCC3O)c2c1CCCC2 (configuration not stated)
22 | 0.02 | > 1000 | O=C(O)c1cc(CCn2cnc3c2NC=NCC3O)c2ccccc2c1 (configuration not stated)
23 | 0.015 | > 7.5 | O=C(O)c1cc2c(c(CCn3cnc4c3NC=NCC4O)c1)CCCC2 (configuration not stated)
24 | 0.009 | > 7.5 | O=C(O)c1cc(CCn2cnc3c2N=CNCC3O)c2c(c1OCc1ccccc1)CCCC2 (configuration not stated)
25 | 0.002 | > 7.5 | O=C(O)c1cc(CCn2cnc3c2N=CNCC3O)c2c(c1Br)CCCC2 (configuration not stated)
